According to US20030135023A1, “Peptide structures useful for competitive modulation of dipeptidyl peptidase IV catalysis” (priority 2001, published 2003):
Where two headings read alike, the source gives them in different places. Square brackets hold non-standard residues; d marks the D form. Peptide text beside a SMILES is read from it. pY = N[C@@H](Cc1ccc(OP(=O)(O)O)cc1)C(=O)O; pS = N[C@@H](COP(=O)(O)O)C(=O)O; Cha = N[C@@H](CC1CCCCC1)C(=O)O; Tle = CC(C)(C)[C@H](N)C(=O)O

Experiments:
[1] = target: T1, PEPT1 (Homo sapiens, UniProt P46059); test: Competition assay with transgenic yeast cells, displacement of radiolabeled tracer dipeptide, PEPT1; type: binding, mammalian
T1 construct: expressed in transfected cells; host or cells: transgenic yeast cells
T1 sequence (P46059 1-708): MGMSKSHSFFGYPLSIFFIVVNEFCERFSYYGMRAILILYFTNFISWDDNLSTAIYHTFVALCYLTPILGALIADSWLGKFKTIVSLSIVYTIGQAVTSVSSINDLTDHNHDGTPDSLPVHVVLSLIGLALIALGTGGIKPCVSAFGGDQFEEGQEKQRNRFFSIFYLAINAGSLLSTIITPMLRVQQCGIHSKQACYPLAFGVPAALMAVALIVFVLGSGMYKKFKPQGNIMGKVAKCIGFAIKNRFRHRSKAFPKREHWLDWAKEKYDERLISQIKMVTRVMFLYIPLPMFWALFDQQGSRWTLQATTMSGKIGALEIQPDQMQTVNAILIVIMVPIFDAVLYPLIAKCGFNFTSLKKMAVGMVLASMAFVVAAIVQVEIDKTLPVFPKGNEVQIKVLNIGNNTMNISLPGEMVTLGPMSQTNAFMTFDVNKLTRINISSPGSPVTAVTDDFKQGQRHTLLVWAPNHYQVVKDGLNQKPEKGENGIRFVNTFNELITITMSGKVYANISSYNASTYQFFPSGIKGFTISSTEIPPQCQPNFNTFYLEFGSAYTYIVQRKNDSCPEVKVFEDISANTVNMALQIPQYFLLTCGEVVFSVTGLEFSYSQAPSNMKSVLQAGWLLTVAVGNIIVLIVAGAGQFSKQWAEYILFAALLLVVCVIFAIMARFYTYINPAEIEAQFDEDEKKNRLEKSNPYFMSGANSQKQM
Source text: (§1) For the analysis o the interaction of the inhibitors of prolyl-specific proteases with the mammalian peptide transporters two assay systems were used. First, all test compounds were submitted to the competition assay with transgenic yeast cells to determine the dose-dependent displacement (EC50 values) of the radiolabeled tracer dipepitde from the substrate binding site. […] As the level of functional expression varies in oocytes, each test compound was compared in the same oocyte with the current elicited by 5 mM of the dipeptide glycyl-L-glutamine (Gly-Gln). Currents of test compounds are therefore given relative to that by Gly-Gln as %I Gly-Gin, expressed as residual uptake in table 10.

[2] = target: T1, PEPT1; test: Electrophysiological analysis of transport currents in Xenopus oocytes expressing PEPT1; type: cell-based, mammalian; settings: transport current in Xenopus oocytes relative to 5 mM Gly-Gln
Source text: as §1

[3] = target: T2, PEPT2 (Homo sapiens, UniProt Q16348); test: Competition assay with transgenic yeast cells, displacement of radiolabeled tracer dipeptide, PEPT2; type: binding, mammalian
T2 construct: expressed in transfected cells; host or cells: transgenic yeast cells
T2 sequence (Q16348 1-729): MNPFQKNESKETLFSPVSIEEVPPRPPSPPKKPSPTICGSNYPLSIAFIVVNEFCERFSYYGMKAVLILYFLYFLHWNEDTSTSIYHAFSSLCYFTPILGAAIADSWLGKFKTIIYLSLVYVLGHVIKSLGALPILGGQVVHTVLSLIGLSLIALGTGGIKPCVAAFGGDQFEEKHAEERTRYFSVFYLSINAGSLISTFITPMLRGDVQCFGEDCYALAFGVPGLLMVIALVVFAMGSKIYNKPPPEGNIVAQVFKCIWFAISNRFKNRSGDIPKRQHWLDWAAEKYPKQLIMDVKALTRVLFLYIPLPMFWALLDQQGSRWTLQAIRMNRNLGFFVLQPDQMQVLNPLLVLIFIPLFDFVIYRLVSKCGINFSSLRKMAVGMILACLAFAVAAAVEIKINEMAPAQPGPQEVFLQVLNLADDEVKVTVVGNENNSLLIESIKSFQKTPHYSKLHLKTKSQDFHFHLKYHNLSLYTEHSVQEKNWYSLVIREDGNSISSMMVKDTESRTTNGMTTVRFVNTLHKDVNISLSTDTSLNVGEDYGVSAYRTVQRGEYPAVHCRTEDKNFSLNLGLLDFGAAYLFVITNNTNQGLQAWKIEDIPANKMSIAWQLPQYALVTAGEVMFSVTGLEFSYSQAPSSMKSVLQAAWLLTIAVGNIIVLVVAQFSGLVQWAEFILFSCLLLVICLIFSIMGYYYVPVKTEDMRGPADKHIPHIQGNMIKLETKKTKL
Source text: as §1

[4] = target: T2, PEPT2; test: Electrophysiological analysis of transport currents in Xenopus oocytes expressing PEPT2; type: cell-based, mammalian; settings: transport current in Xenopus oocytes relative to 5 mM Gly-Gln
Source text: as §1

[5] = target: T3, purified porcine DP IV (Sus scrofa, UniProt P22411); test: Determination of IC50-values, Gly-Pro-pNA cleavage by DP IV; type: biochemical
T3 sequence (P22411 whole entry): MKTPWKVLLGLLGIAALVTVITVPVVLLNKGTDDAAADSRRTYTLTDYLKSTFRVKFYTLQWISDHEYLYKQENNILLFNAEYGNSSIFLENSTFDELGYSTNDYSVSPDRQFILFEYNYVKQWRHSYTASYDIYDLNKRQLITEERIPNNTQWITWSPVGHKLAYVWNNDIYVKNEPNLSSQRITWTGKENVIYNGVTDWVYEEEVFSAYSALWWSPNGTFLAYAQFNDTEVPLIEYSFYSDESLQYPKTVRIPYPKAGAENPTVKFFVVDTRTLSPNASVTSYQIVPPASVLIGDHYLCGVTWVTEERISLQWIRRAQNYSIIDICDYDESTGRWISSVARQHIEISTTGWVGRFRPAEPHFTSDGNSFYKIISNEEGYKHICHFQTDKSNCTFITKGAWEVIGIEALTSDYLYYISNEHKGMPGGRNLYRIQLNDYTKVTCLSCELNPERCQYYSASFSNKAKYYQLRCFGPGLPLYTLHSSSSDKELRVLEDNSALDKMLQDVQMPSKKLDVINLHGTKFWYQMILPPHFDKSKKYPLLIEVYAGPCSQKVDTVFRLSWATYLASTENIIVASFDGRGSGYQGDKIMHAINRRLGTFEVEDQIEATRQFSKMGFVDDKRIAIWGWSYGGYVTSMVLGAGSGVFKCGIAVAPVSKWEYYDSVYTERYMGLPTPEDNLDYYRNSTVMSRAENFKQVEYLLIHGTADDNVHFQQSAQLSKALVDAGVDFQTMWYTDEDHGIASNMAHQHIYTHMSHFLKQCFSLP
Description: (§2) 100 μl inhibitor stock solution were mixed with 100 μl buffer (HEPES pH 7.6) and 50 μl substrate (Gly-Pro-pNA, final concentration 0.4 mM) and preincubated at 30° C. Reaction was started by addition of 20 μl purified porcine DP IV. Formation of the product pNA was measured at 405 nm over 10 min using the HTS 7000 Plus plate reader (Perkin Elmer) and slopes were calculated. The final inhibitor concentrations ranged between 1 mM and 30 nM.
For calculation of IC50-values GraFit 4.0.13 (Erithacus Software) was used.

[6] = target: T4, plasma DP IV (Rattus norvegicus, UniProt P14740); test: Plasma DP IV activity after intravasal and oral administration in Wistar rats; type: in vivo
T4 construct: The assay mixture consisted of 80 μl reagent and 20 μl plasma; from tissue; host or cells: plasma of Wistar rats
T4 sequence (P14740 37-767 limits assumed): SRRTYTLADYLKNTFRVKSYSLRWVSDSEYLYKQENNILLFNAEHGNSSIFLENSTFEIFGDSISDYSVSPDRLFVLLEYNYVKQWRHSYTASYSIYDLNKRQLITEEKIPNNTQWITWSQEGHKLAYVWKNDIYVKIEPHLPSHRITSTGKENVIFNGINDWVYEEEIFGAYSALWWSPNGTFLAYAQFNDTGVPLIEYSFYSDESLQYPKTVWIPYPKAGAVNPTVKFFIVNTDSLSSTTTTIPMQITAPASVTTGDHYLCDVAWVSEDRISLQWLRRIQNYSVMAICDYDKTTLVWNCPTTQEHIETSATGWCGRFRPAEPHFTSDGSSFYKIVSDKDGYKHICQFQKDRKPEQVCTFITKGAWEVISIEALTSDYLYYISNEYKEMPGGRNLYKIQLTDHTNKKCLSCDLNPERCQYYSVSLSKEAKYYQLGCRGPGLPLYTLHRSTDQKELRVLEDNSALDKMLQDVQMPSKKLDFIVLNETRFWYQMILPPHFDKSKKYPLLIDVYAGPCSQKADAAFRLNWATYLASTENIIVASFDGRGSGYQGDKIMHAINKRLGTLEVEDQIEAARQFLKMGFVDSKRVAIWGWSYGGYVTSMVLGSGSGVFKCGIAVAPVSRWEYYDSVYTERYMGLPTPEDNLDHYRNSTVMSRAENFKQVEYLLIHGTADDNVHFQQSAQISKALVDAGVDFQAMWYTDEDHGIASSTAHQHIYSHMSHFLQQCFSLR
Description: Rats with intact catheter function were given the test substances intravasal (intraarterial) or oral, respectively, in random order (N=3 Wistar rats in each group). As positive control, […]. isoleucine thiazolidine*fumarate were administered intravasal.
After overnight fasting, 100 μl samples of heparinized arterial blood were collected at −30, −5, and 0 min into ice-cooled Eppendorf tubes (see below). The test substances were dissolved freshly in 1.0 ml saline (0.154 mol/l) and were given at 0 min either oral via a feeding tube ([…], 75 mm; Fine Science Tools, Heidelberg, Germany) or intravasal. For the intravasal route, the catheter was immediately flushed with 30 μl saline and an additional 1 ml of saline was given orally via the feeding tube.
Arterial blood samples were taken thereafter at 5, 10 (only in a limited number of experiments), 20, 40, 60 and 120 min from the carotid catheter of the conscious unrestrained rats and were always given into ice cooled Eppendorf tubes (Eppendorf-Netheler-Hinz, Hamburg, Germany) filled with 10 μl 1 M citrate buffer pH 3.0 for prevention of further hydrolysis of tripeptides by plasma DP IV activity. Eppendorf tubes were centrifuged immediately (12000 rpm for 2 min, Hettich Zentrifuge EBA 12, Tuttlingen; Germany): The plasma fractions were store on ice until analysis or were deeply frozen at −20 ° C. until analysis.
Plasma DP IV activity: The assay mixture consisted of 80 μl reagent and 20 μl plasma. Kinetic measurements of the formation of the yellow product 4-nitroaniline were performed at 390 nm for 1 min at 30° C. after 2 min pre-incubation at the same temperature. The activity was expressed as arbitrary units [AU] and DP IV activity [mU/ml].
The absolute values of plasma DP IV activity, the relative change of plasma DP IV activity and the time and extent of maximal inhibition were calculated. Data presentation included the presentation of area under the curve (AUC), which was used for evaluation of extent of inhibition of plasma DP IV activity during the two hours of observation. AUC was calculated using the trapezoidal rule.
To compare relative changes of parameters under the conditions of different initial values of DP IV activity an uniform standardised mean (values) was set up at the beginning of the test (see Figures and Tables).
Statistical evaluations were performed with Microsoft Excel® 97. All variables are presented as mean and standard deviation (SD). Treatment groups were compared by Student's t-test, within-group changes by paired t-test. Two-tailed values of p<0.05 were considered significant.

[7] = target: T3, purified porcine DP IV; test: Determination of Ki-values, Gly-Pro-pNA cleavage by DP IV; type: biochemical; settings: Gly-Pro-pNA 0.05-0.4 mM
Description: as §2
Calculations were performed using the GraFit Software.

[8] = displacement of radiolabeled tracer dipeptide, transgenic yeast cells, read-out: PEPT1 EC50
[9] = displacement of radiolabeled tracer dipeptide, transgenic yeast cells, read-out: PEPT2 EC50
[10] = Gly-Pro-pNA 0.4 mM, HEPES pH 7.6, 30° C., read-out: IC50

Row | SMILES | EC50 [1, 8] | PEPT1 Residual uptake % IGly-Gln [2] | EC50 [3, 9] | PEPT2 Residual uptake % IGly-Gln [4] | IC50 [5, 10] | EC50 [1] | DPIV inhibition at tmax, p.o. ([6]; Wistar rats, p.o., 100 mg/kg) | inhibition at 100 mg/kg ([6]; rat, iv, read-out: DPIV inhibition at tmax, i.v.) | EC50 [3] | IC50 [5] | Ki [7]
1 | CC[C@H](C)[C@H](NC(=O)[C@@H]1CCCN1C(=O)[C@@H](N)COP(=O)(O)O)C(=O)O [Ser(P)-Pro-Ile] (H-[pS]-Pro-Ile-OH; N-terminus and C-terminus assumed) | 4100 ± 1300 µM | 0 % IGly-Gln | 4900 ± 1090 µM | 0 % IGly-Gln | 12000 µM |  |  |  |  |  | 
2 | CC[C@H](C)[C@H](NC(=O)[C@@H]1CCCN1C(=O)[C@@H](N)Cc1ccc(OP(=O)(O)O)cc1)C(=O)O [Tyr(P)-Pro-Ile] (H-[pY]-Pro-Ile-OH; N-terminus and C-terminus assumed) |  | 0 % IGly-Gln |  | 0 % IGly-Gln |  | 902 ± 58 µM | no inhibition | 37% | 390 ± 17 µM | 1770 µM | 
3 | CC[C@@H](C)[C@@H](NC(=O)[C@@H]1CCCN1C(=O)[C@@H](N)C(C)(C)C)C(=O)O [t-butyl-Gly-Pro-D-Ile] (H-[Tle]-Pro-[dI]-OH; N-terminus and C-terminus assumed) | 10600 ± 64 µM | 0 % IGly-Gln | 2300 ± 1120 µM | 0 % IGly-Gln |  |  |  |  |  |  | 
4 | CC(C)[C@@H](NC(=O)[C@@H]1CCCN1C(=O)[C@@H](N)C(C)(C)C)C(=O)O [t-butyl-Gly-Pro-D-Val] (H-[Tle]-Pro-[dV]-OH; N-terminus and C-terminus assumed) | 11100 ± 2800 µM | 0 % IGly-Gln | 1500 ± 240 µM | 0 % IGly-Gln | 112 µM |  |  |  |  |  | 26.5 µM
5 | CC[C@H](C)[C@H](NC(=O)[C@@H]1CCCN1C(=O)[C@@H](N)CC1CCCCC1)C(=O)O [Cha-Pro-Ile] (H-[Cha]-Pro-Ile-OH; N-terminus and C-terminus assumed) | 141 ± 9 µM | 90 % IGly-Gln | 124 ± 1 µM | 100 % IGly-Gln | 20.3 µM |  |  |  |  |  | 5.99 µM
